Source: ChEMBL document CHEMBL1909046, “DrugMatrix in vitro pharmacology data”

Key:
[1] = target: 5-hydroxytryptamine receptor 1B (Rattus norvegicus, UniProt P28564); type: cell membranes, Wistar, Cerebral cortex, Membrane; also: in other assays of this panel Not Active means under 50% inhibition at 10 µM
[2] = DRUGMATRIX: Calcium Channel Type L, Dihydropyridine radioligand binding (ligand: [3H] Nitrendipine); type: cell membranes, Rattus norvegicus, Wistar, Cerebral cortex, Membrane; settings: Not Active = under 50% inhibition at 10 µM
Nitric oxide synthase 1 = Nitric oxide synthase 1 (Rattus norvegicus, UniProt P29476); type: tissue-based, Cerebellum; also: in other assays of this panel Not Active means under 50% inhibition at 10 µM
Nitric oxide synthase 1, sequence (P29476 whole entry): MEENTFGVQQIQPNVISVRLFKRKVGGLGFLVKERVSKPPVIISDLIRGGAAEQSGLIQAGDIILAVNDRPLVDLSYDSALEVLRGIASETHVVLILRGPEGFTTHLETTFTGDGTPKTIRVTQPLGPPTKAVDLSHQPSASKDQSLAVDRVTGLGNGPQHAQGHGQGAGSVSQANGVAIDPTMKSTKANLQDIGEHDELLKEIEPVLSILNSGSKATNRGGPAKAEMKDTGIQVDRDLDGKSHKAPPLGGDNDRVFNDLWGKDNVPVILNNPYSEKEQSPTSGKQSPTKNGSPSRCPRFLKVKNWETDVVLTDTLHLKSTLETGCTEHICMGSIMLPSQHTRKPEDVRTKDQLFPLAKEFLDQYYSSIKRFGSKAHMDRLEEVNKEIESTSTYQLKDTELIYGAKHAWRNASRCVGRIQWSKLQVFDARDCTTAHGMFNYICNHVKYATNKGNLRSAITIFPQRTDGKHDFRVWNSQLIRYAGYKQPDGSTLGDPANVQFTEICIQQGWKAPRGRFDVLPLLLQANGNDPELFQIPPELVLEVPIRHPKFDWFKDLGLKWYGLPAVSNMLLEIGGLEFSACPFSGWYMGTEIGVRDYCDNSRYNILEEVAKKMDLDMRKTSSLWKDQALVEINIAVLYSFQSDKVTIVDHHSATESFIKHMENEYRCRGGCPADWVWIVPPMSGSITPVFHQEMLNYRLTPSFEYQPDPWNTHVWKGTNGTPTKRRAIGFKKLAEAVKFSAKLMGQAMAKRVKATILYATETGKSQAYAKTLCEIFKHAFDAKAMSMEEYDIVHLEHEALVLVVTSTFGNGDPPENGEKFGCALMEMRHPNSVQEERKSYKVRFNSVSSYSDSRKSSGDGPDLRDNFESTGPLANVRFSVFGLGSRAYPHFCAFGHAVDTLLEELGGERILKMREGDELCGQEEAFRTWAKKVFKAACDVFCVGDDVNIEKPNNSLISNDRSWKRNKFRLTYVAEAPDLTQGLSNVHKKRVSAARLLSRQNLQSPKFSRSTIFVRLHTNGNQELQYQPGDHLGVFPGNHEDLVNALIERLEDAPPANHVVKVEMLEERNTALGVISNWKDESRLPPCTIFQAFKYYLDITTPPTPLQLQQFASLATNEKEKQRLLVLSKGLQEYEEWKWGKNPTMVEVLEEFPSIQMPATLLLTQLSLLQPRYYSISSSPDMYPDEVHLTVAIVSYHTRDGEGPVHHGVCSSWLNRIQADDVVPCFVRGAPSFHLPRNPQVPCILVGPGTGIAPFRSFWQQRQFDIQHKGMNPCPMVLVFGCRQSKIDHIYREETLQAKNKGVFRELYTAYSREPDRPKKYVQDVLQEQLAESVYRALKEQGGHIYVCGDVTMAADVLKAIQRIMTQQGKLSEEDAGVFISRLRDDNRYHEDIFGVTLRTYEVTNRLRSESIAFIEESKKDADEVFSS

[3] = DRUGMATRIX: ATPase, Na+/K+ enzyme inhibition (substrate: ATP); type: tissue-based, Sus scrofa, Heart; settings: Not Active = under 50% inhibition at 10 µM
[4] = target: T1, Muscarinic acetylcholine receptor M4 (Homo sapiens, UniProt P08173); type: cell membranes, CHO-K1, Membrane; settings: cho-k1; also: in other assays of this panel Not Active means under 50% inhibition at 10 µM
T1 sequence (P08173 whole entry): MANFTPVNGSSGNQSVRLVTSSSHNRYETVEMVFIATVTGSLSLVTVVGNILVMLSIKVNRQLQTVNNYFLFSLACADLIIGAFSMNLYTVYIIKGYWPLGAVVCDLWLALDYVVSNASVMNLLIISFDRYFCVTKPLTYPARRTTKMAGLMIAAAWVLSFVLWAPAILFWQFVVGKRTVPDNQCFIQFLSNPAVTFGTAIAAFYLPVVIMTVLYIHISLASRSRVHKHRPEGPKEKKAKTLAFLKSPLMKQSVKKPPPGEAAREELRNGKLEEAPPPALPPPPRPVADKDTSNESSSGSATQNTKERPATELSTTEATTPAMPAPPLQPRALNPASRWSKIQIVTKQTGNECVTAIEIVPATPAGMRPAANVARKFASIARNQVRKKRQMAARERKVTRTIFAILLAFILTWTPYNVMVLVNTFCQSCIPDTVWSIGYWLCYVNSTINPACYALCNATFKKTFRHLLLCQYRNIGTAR

Endothelin-1 receptor = target: T2, Endothelin-1 receptor (Homo sapiens, UniProt P25101); type: cell membranes, Membrane; settings: cho-k1; also: in other assays of this panel Not Active means under 50% inhibition at 10 µM
T2 sequence (P25101 whole entry): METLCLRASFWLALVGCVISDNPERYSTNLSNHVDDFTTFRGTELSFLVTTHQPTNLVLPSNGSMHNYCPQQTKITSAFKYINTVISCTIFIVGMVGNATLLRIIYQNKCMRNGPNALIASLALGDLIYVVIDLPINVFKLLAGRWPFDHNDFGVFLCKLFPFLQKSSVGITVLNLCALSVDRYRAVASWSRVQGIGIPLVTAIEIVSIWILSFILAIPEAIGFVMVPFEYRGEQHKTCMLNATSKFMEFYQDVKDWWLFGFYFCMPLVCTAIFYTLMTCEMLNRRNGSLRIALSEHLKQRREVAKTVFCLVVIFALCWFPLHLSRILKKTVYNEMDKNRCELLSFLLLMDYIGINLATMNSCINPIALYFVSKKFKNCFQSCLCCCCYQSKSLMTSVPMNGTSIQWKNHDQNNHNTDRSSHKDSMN

5-hydroxytryptamine receptor 1B, sequence (P28564 whole entry): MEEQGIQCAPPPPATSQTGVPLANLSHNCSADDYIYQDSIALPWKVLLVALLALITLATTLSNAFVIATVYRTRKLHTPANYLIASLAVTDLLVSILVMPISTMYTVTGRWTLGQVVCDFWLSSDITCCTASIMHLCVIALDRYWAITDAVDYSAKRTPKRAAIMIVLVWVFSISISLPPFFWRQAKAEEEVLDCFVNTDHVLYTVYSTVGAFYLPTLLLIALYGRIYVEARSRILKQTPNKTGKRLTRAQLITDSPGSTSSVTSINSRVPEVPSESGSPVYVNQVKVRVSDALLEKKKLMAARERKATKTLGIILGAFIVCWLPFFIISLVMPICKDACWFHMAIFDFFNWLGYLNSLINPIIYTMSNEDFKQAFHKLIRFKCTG

O=C(c1ccccc1C(F)(F)F)N1CCC(Cc2ccccc2)CC1
Not Active: IC50 [1] | IC50 [2] | Ki [2] | IC50 (Nitric oxide synthase 1) | IC50 [3] | Ki [3] | IC50 [4] | IC50 (Endothelin-1 receptor)

O=C/C=C/c1ccccc1
Not Active: IC50 [1] | IC50 [2] | Ki [2] | IC50 (Nitric oxide synthase 1) | IC50 [3] | Ki [3] | IC50 [4] | IC50 (Endothelin-1 receptor)

Nc1ccc2c3c(cccc13)C(=O)NC2=O
Not Active: IC50 [1] | IC50 [2] | Ki [2] | IC50 (Nitric oxide synthase 1) | IC50 [3] | Ki [3] | IC50 [4] | IC50 (Endothelin-1 receptor)

COc1ccc(C(=O)N2CCCC2=O)cc1
Not Active: IC50 [1] | IC50 [2] | Ki [2] | IC50 (Nitric oxide synthase 1) | IC50 [3] | Ki [3] | IC50 [4] | IC50 (Endothelin-1 receptor)

O=c1cnn([C@@H]2O[C@H](CO)[C@@H](O)[C@H]2O)c(=O)[nH]1 [6-AZAURIDINE]
Not Active: IC50 [1] | IC50 [2] | Ki [2] | IC50 (Nitric oxide synthase 1) | IC50 [3] | Ki [3] | IC50 [4] | IC50 (Endothelin-1 receptor)

CC[C@H](C)[C@H]1O[C@]2(C=C[C@@H]1C)C[C@@H]1C[C@@H](C/C=C(\C)[C@@H](O[C@H]3C[C@H](OC)[C@@H](O[C@H]4C[C@H](OC)[C@@H](O)[C@H](C)O4)[C@H](C)O3)[C@@H](C)/C=C/C=C3\CO[C@@H]4[C@H](O)C(C)=C[C@@H](C(=O)O1)[C@]34O)O2.CO[C@H]1C[C@H](O[C@H]2[C@H](C)O[C@@H](O[C@@H]3/C(C)=C/C[C@@H]4C[C@@H](C[C@]5(C=C[C@H](C)[C@@H](C(C)C)O5)O4)OC(=O)[C@@H]4C=C(C)[C@@H](O)[C@H]5OC/C(=C\C=C\[C@@H]3C)[C@]54O)C[C@@H]2OC)O[C@@H](C)[C@@H]1O [ABAMECTIN]
Not Active: IC50 [1] | IC50 [2] | Ki [2] | IC50 (Nitric oxide synthase 1) | IC50 [3] | Ki [3] | IC50 [4] | IC50 (Endothelin-1 receptor)

NCCCC(O)(P(=O)(O)O)P(=O)(O)O [ALENDRONIC ACID]
Not Active: IC50 [1] | IC50 [2] | Ki [2] | IC50 (Nitric oxide synthase 1) | IC50 [3] | Ki [3] | IC50 [4] | IC50 (Endothelin-1 receptor)

Cc1nnc2n1-c1ccc(Cl)cc1C(c1ccccc1)=NC2 [ALPRAZOLAM]
Not Active: IC50 [1] | IC50 [2] | Ki [2] | IC50 (Nitric oxide synthase 1) | IC50 [3] | Ki [3] | IC50 [4] | IC50 (Endothelin-1 receptor)

Cn1c(=O)c2[nH]cnc2n(C)c1=O.Cn1c(=O)c2[nH]cnc2n(C)c1=O.NCCN [AMINOPHYLLINE]
Not Active: IC50 [1] | IC50 [2] | Ki [2] | IC50 (Nitric oxide synthase 1) | IC50 [3] | Ki [3] | IC50 [4] | IC50 (Endothelin-1 receptor)

CCC1(CCC(C)C)C(=O)NC(=O)NC1=O [AMOBARBITAL]
Not Active: IC50 [1] | IC50 [2] | Ki [2] | IC50 (Nitric oxide synthase 1) | IC50 [3] | Ki [3] | IC50 [4] | IC50 (Endothelin-1 receptor)

CC1(C)S[C@@H]2[C@H](NC(=O)[C@H](N)c3ccccc3)C(=O)N2[C@H]1C(=O)O [AMPICILLIN]
Not Active: IC50 [1] | IC50 [2] | Ki [2] | IC50 (Nitric oxide synthase 1) | IC50 [3] | Ki [3] | IC50 [4] | IC50 (Endothelin-1 receptor)

COc1ccc(C2C(=O)c3ccccc3C2=O)cc1 [ANISINDIONE]
Not Active: IC50 [1] | IC50 [2] | Ki [2] | IC50 (Nitric oxide synthase 1) | IC50 [3] | Ki [3] | IC50 [4] | IC50 (Endothelin-1 receptor)

O=C1O[C@H]([C@@H](O)CO)C(O)=C1O [ASCORBIC ACID]
Not Active: IC50 [1] | IC50 [2] | Ki [2] | IC50 (Nitric oxide synthase 1) | IC50 [3] | Ki [3] | IC50 [4] | IC50 (Endothelin-1 receptor)

CN1[C@@H]2CC[C@H]1C[C@@H](OC(=O)C(CO)c1ccccc1)C2 (stereo partly drawn) [ATROPINE]
Not Active: IC50 [1] | IC50 [2] | Ki [2] | IC50 (Nitric oxide synthase 1) | IC50 [3] | Ki [3] | IC50 (Endothelin-1 receptor)

CC(C(=O)O)c1ccc2oc(-c3ccc(Cl)cc3)nc2c1 (stereo not drawn) [BENOXAPROFEN]
Not Active: IC50 [1] | IC50 [2] | Ki [2] | IC50 (Nitric oxide synthase 1) | IC50 [3] | Ki [3] | IC50 [4] | IC50 (Endothelin-1 receptor)

COc1ccc2cc3[n+](cc2c1OC)CCc1cc2c(cc1-3)OCO2.[Cl-] [BERBERINE CHLORIDE]
Not Active: IC50 [1] | IC50 [2] | Ki [2] | IC50 (Nitric oxide synthase 1) | IC50 [3] | Ki [3] | IC50 [4] | IC50 (Endothelin-1 receptor)

O=C(O)CCNC(=O)c1ccccc1 [BETAMIPRON]
Not Active: IC50 [1] | IC50 [2] | Ki [2] | IC50 (Nitric oxide synthase 1) | IC50 [3] | Ki [3] | IC50 [4] | IC50 (Endothelin-1 receptor)

CC(=O)Oc1ccc(C(c2ccc(OC(C)=O)cc2)c2ccccn2)cc1 [BISACODYL]
Not Active: IC50 [1] | IC50 [2] | Ki [2] | IC50 (Nitric oxide synthase 1) | IC50 [3] | Ki [3] | IC50 [4] | IC50 (Endothelin-1 receptor)
